pIC50: −log10 of the molar value.

What is called pIC50 is the negative decadic logarithm of the IC50, by convention in mol/L. A higher pIC50 goes with a low IC50.

In the assay the target is AT2 receptor (Homo sapiens (Human), UniProt P50052). In words: AT2 Receptor Binding. The note with it: HEK293 AT2 receptor transient cell membranes, [125I]-CGP42112A. The method, then: 1. Trypsin-EDTA (for Preparation of 100 mL)
• Dissolve trypsin in 2% EDTA and PBS completely; sterilize the solution by passing through a […] membrane filter; store at 4° C.
2. DMEM Medium (for Preparation of 1 L) • The powder was dissolved into 950 mL of distilled water with gentle stirring until the solution becomes clear. • Add. NaHCO3 1.176 g for DMEM medium. • Adjust pH of medium to 0.2˜0.3 below final working pH using 1 M NaOH or 1 M • HCl. Add slowly with stirring. • Dilute to 1 liter with ddH2O. • Sterilize the medium immediately by filtration. • Store at 4° C.
3. TE Buffer • 20 mM Tris-HCl, pH 7.4, • 5 mM EDTA
4. Binding Assay Buffer • 50 mM Hepes, pH 7.4 • 5 mM MgCl2 • 1 mM CaCl2 • 0.2% BSA
5. Wash Buffer • 50 mM Hepes, pH 7.4 Procedures for HEK293AT2 Receptor Transient Cell Transfection • Cells were plated into 150 mm dish at 50% density for transient transfection. Cells were ready for transfection after overnight incubation (the confluence reaches around 80%). • 75 μL Lipofectamine™2000 diluted in 6.25 mL OptiMEM I Reduced Serum Medium, was mixed gently, and incubated at room temperature for 5 minutes. 50 μg expression plasmid DNA diluted in 6.25 mL OptiMEM I Reduced Serum Medium without serum was mixed gently. • After the 5 minute incubation, the diluted DNA was combined with the diluted Lipofectamine™2000 (total volume is 12.5 mL). The mixture was mixed gently and incubated for 30 minutes at room temperature to allow the DNA-Lipofectamine™2000 complexes to form. • The 12.5 mL DNA-Lipofectamine™2000 complexes were added into the 150 mm dish and mixed gently by rocking the dish back and forth. • The cells were incubated at 37° C. with 5% CO2 for 48 hours. Cells were collected and stored frozen at −80° C. Procedures for HEK293AT2 Receptor Cell Membrane Preparation • Frozen HEK293AT2 receptor (transient transfected) cells were homogenized in ice cold TE buffer for 10s. • The homogenate was centrifuged at 25,000 g for 30 minutes. • The pellet was resuspended in ice cold tissue buffer. • Protein concentrations were determined using Bradford assay method with BSA as standard. • The membrane protein was frozen under −80° C. Compound Preparation
Solutions of all compounds were prepared bymicroplate liquid handling equipment such as Janus or Precision 2000. Compounds, dissolved in DMSO were stored in a Freezer. Compounds were prepared from 30 mM in 100% DMSO.
Step 1: Dose Plate Preparation (96 Well Plate)
• Add the 3 μL [30 mM] compound stock to column 1 on the plate. • Add 15 μL of 100% DMSO to column 1. • Add 10.81 μL of 100% DMSO to column 2-12. • Transfer 5 μL from column 1 into column 2 (half log dilution). • Transfer 5 μL from column 2 into column 3 (half log dilution). • Transfer 5 μL from column 3 into column 4 (half log dilution). • Transfer 5 μL from column 4 into column 5 (half log dilution). • Transfer 5 μL from column 5 into column 6 (half log dilution). • Transfer 5 μL from column 6 into column 7 (half log dilution). • Transfer 5 μL from column 7 into column 8 (half log dilution). • Transfer 5 μL from column 8 into column 9 (half log dilution). • Transfer 5 μL from column 9 into column 10 (half log dilution) • Transfer 5 μL from column 10 into column 11 (half log dilution) • Transfer 5 μL from column 11 into column 12 (half log dilution).
All the compounds were diluted using Precision 2000 microplate liquid handling equipment. The top concentration of compound was 5 mM with 100% DMSO.
Step 2: Working Plate Preparation (96 Well Plate)
• Compounds were diluted 50-fold with buffer. • 49 μL buffer was added to the well of 96 well plate. • 1 μL compound solution from dose plate was transferred to the corresponding well of working plate. • The top concentration of compound was 100 μM with 2% DMSO. Step 3: Assay Plate Preparation (96 Well Plate)
15 μL of compound solution was transferred from each well of working plate to the well of assay plate by Janus.

Chain of AT2 receptor (P50052 whole entry, species assumed): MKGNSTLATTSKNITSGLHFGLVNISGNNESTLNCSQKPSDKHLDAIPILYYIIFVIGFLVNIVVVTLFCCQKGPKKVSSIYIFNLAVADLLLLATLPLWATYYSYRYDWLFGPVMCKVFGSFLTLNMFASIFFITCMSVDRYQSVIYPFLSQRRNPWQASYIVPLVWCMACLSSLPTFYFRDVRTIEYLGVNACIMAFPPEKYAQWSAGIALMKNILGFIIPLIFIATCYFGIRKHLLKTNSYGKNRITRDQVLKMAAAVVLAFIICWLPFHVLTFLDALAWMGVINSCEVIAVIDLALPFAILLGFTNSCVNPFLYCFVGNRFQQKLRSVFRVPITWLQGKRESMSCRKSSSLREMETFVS

`CN(CCCc1ccccc1)[C@H]1C[C@@H](C(=O)O)N(C(=O)C(c2ccccc2)C2CCCCC2)C1` (stereo partly drawn) [Compound 62, (2S,4S)-1-(2-cyclohexyl-2-phenylacetyl)-4-(methyl(3-phenylpropyl)amino)pyrrolidine-2-carboxylic acid] showed a negative-log IC50 (pIC50) of 6.27.

`O=C1NCC2(CCN([C@H]3C[C@@H](C(=O)O)N(C(=O)C(c4ccccc4)c4ccccc4)C3)CC2)C1c1ccccc1` (stereo partly drawn) [Compound 65, (2S,4S)-1-(2,2-diphenylacetyl)-4-(3-oxo-4-phenyl-2,8-diazaspiro[4,5]decan-8-yl)pyrrolidine-2-carboxylic acid]: the pIC50 was 5.79.

The molecule `O=C(O)[C@@H]1C[C@H](N2CCC3(CC2)C(=O)NC3c2ccccc2)CN1C(=O)C(c1ccccc1)c1ccccc1` (stereo partly drawn) [Compound 75, (2S,4S)-1-(2,2-diphenylacetyl)-4-(1-oxo-3-phenyl-2,7-diazaspiro[3,5]nonan-7-yl)pyrrolidine-2-carboxylic acid] had a pIC50 of 5.42. Compared with the last molecule, the pIC50 is 0.37 log units lower.

In turn, `O=C(O)[C@@H]1C[C@H](N2CCC[C@H]3CN(Cc4ccccc4)C[C@H]32)CN1C(=O)C(c1ccccc1)c1ccccc1` [Compound 84] showed a pIC50 of 7.12.

Molecule `O=C(O)[C@@H]1C[C@H](N2CCC[C@@H]3CN(Cc4ccccc4)C[C@@H]32)CN1C(=O)C(c1ccccc1)c1ccccc1` [Compound 85, (2S,4S)-4-((4aR,7aR)-6-benzoctahydro-1H-pyrrolo[3,4-b]-pyridin-1-yl)-1-(2,2-diphenylacetyl)pyrrolidine-2-carboxylic acid] had a pIC50 of 6.99.

`O=C(O)[C@@H]1C[C@H](N2CC[C@@H](c3ccccc3)C2)CN1C(=O)C(c1ccccc1)c1ccccc1` [Compound 86] showed a pIC50 of 6.09.

Consider `O=C(O)[C@@H]1C[C@H](N2CC[C@H](c3ccccc3)C2)CN1C(=O)C(c1ccccc1)c1ccccc1` [Compound 87], for which the pIC50 was 7.36.

Consider `CN(CCCCc1ccccc1)[C@H]1C[C@@H](C(=O)O)N(C(=O)C(c2ccccc2)c2ccccc2)C1` [Compound 90, (2S,4S)-1-(2,2-diphenylacetyl)-4-(methyl(4-phenylbutyl)-amino)pyrrolidine-2-carboxylic acid], for which the pIC50 is 7.19.

`CN(CCCc1ccc(F)cc1)[C@H]1C[C@@H](C(=O)O)N(C(=O)C(c2ccccc2)c2ccccc2)C1` [Compound 91, (2S,4S)-1-(2,2-diphenylacetyl)-4-((3-(4-fluorophenyl)-propyl)(methyl)amino)pyrrolidine-2-carboxylic acid] had a pIC50 of 7.92.

In turn, `COc1ccc(CCCN(C)[C@H]2C[C@@H](C(=O)O)N(C(=O)C(c3ccccc3)c3ccccc3)C2)cc1C` [Compound 92, (2S,4S)-1-(2,2-diphenylacetyl)-4-((3-(4-methoxy-3-methylphenyl)propyl)(methyl)amino)pyrrolidine-2-carboxylic acid] gave a pIC50 of 6.87.

Regarding `CN(CCCc1cccnc1)[C@H]1C[C@@H](C(=O)O)N(C(=O)C(c2ccccc2)c2ccccc2)C1` [Compound 93], the pIC50 is 6.90.

In turn, `O=C(CCc1ccccc1)N[C@H]1C[C@@H](C(=O)O)N(C(=O)C(c2ccccc2)c2ccccc2)C1` [Compound 96, (2S,4S)-1-(2,2-diphenylacetyl)-4-(3-phenylpropanamido)-pyrrolidine-2-carboxylic acid] gave a negative logarithm of the IC50 (pIC50) of 5.65.

On to `CN(C(=O)CCc1ccccc1)[C@H]1C[C@@H](C(=O)O)N(C(=O)C(c2ccccc2)c2ccccc2)C1` [Compound 97, (2S,4S)-1-(2,2-diphenylacetyl)-4-(N-methyl-3-phenylpropanamido)pyrrolidine-2-carboxylic acid], for which the pIC50 is 6.34.

Consider `CS(=O)(=O)N(CCCc1ccccc1)[C@H]1C[C@@H](C(=O)O)N(C(=O)C(c2ccccc2)c2ccccc2)C1` [Compound 99, (2S,4S)-1-(2,2-diphenylacetyl)-4-(N-(3-phenylpropyl)-methylsulfonamido)pyrrolidine-2-carboxylic acid], for which the pIC50 is 6.27.

With `O=C(O)[C@@H]1C[C@H](n2nncc2-c2ccccc2)CN1C(=O)C(c1ccccc1)c1ccccc1` [Compound 100, (2S,4S)-1-(2,2-diphenylacetyl)-4-(5-phenyl-1H-1,2,3-triazol-1-yl)pyrrolidine-2-carboxylic acid], the negative logarithm of the IC50 (pIC50) is 7.74. Compared with the last molecule, the pIC50 is 1.47 log units higher.

In turn, `O=C(O)[C@@H]1C[C@H](n2nncc2Cc2ccccc2)CN1C(=O)C(c1ccccc1)c1ccccc1` [Compound 101, (2S,4S)-4-(5-benzyl-1H-1,2,3-triazol-1-yl)-1-(2,2-diphenylacetyl)pyrrolidine-2-carboxylic acid] showed a negative logarithm of the IC50 (pIC50) of 6.40.

`O=C(O)[C@@H]1C[C@H](N2C(=O)COC[C@@H]2Cc2ccccc2)CN1C(=O)C(c1ccccc1)c1ccccc1` [Compound 102, (2S,4S)-4-((S)-3-benzyl-5-oxomorpholino)-1-(2,2-diphenylacetyl)pyrrolidine-2-carboxylic acid] gave a pIC50 of 6.30.

In turn, `O=C(O)[C@@H]1C[C@H](OCCCc2ccc(F)cc2)CN1C(=O)C(c1ccccc1)c1ccccc1` [Compound 104, (2S,4S)-1-(2,2-diphenylacetyl)-4-(3-(4-fluorophenyl)-propoxy)pyrrolidine-2-carboxylic acid] had a negative logarithm of the IC50 (pIC50) of 5.88.

On to `COc1ccc(C#CCN(C)[C@H]2C[C@@H](C(=O)O)N(C(=O)C(c3ccccc3)c3ccccc3)C2)cc1C` [Compound 105, (2S,4S)-1-(2,2-diphenylacetyl)-4-((3-(4-methoxy-3-methylphenyl)prop-2-yn-1-yl)(methyl)amino)pyrrolidine-2-carboxylic acid], for which the pIC50 was 5.60.

`O=C(O)[C@@H]1C[C@H](CCCCc2ccccc2)CN1C(=O)C(c1ccccc1)c1ccccc1` [Compound 106, (2S,4S)-1-(2,2-diphenylacetyl)-4-(4-phenylbutyl)-pyrrolidine-2-carboxylic acid]: the pIC50 was 6.37.

With `O=C(O)[C@@H]1C[C@H](c2sccc2-c2ccccc2)CN1C(=O)C(c1ccccc1)c1ccccc1` [Compound 107, (2S,4S)-1-(2,2-diphenylacetyl)-4-(3-phenylthiophen-2-yl)-pyrrolidine-2-carboxylic acid], the pIC50 was 6.34.

For `CN(C)S(=O)(=O)NC(=O)[C@@H]1C[C@H](OCCCc2ccccc2)CN1C(=O)C(c1ccccc1)c1ccccc1` [Compound 112, (2S,4S)—N—(N,N-dimethylsulfamoyl)-1-(2,2-diphenylacetyl)-4-(3-phenylpropoxy)pyrrolidine-2-carboxamide], the pIC50 is 6.59.

In the case of `CN(CCCc1ccc(F)cc1)[C@H]1C[C@@H](C(=O)NS(=O)(=O)N(C)C)N(C(=O)C(c2ccccc2)c2ccccc2)C1` [Compound 114, (2S,4S)—N—(N,N-dimethylsulfamoyl)-1-(2,2-diphenylacetyl)-4-((3-(4-fluorophenyl)propyl)(methyl)amino)pyrrolidine-2-carboxylic acid], the pIC50 is 7.77.

Turning to `O=C(O)[C@@H]1C[C@H](N2CCC3(CCOC(=O)N3Cc3ccccc3)C2)CN1C(=O)C(c1ccccc1)c1ccccc1` (stereo partly shown) [Compound 115], the negative-log IC50 (pIC50) was 6.49.

Consider `CN(CC#Cc1ccccc1)[C@H]1C[C@@H](C(=O)O)N(C(=O)C(c2ccccc2)c2ccccc2)C1` [Compound 116, (2S,4S)1-(2,2-diphenylacetyl)-4-(methyl(3-phenylprop-2-yn-1-yl)amino)pyrrolidine-2-carboxylic acid], for which the pIC50 is 6.19.

These data come from US9624243B2, “Heterocyclic compounds and methods of their use” (Novartis AG, priority 2012, dated 2017).
